Experimental data from patent US20170066795A1, “SOLID PRODRUG FORMS OF 2'-CHLORO-2'-METHYL URIDINE FOR HCV” (IDENIX PHARMACEUTICALS LLC, priority 2014, published 2017).

Columns and labels:
[1] = Example 3: tolerability (clinical and laboratory abnormalities) in HCV-infected subjects; assay type: in vivo, human; conditions: 50-300 mg QD x 7 days
Text: (§1) This part was a randomized, double-blind, placebo-controlled, parallel group study in treatment-naïve, Genotype 1 HCV-infected subjects. Thirty (30) subjects were randomized across the treatment arms specified below.
(§2) This part were a randomized, open-label, parallel group study in treatment-naïve, Genotype 2, 3, 4, 5 and 6 HCV-infected subjects. Thirty (30) subjects were randomized across the treatment arms specified below.
(§3) Dosing, sampling, and analyses for Parts I and II were made according to Tables A and B.

[2] = Example 4 Group A: safety (adverse events) in healthy volunteers; assay type: in vivo, human
Experimental: Six sequential cohorts of 8 health volunteers per cohort were randomized via a computer-generated randomization list in the ratio of 2:6. Two of the healthy volunteers (HV) received placebo and the remaining six received Compound I under fasted conditions at single ascending doses of 10, 25, 50, 150, or 300 mg, or multiple doses at 300 mg QD for 7 days (below, “Group A”).
For Groups A and B, dosing occurred between approximately 08:00 AM and 10:00 AM on each dosing day. Dosing was fasted for all subjects in Groups A and B. For fasted dosing, subjects observed a fasting period of approximately 10 hours prior to each dose and for an additional 4 hours post-dose.
Safety measurements included clinical history, routine laboratory evaluation, physical examination, 12-lead ECG, vital signs, adverse event (AE) assessment.

[3] = test system: Genotype 1 HCV; experiment: Example 3 Part I: Compound I QD x 7 days in treatment-naïve Genotype 1 HCV-infected subjects, viral load (HCV RNA); assay type: in vivo; conditions: 300 mg/day for 7 days
Experimental: as §1, §3
(§4) Compound I was provided as size 0, white, hard hydroxypropyl methylcellulose (HPMC) capsules for oral administration at 5 mg, 25 mg and 50 mg strengths. The same powder blend containing 33.3% weight/weight (w/w) Compound I, a diluent, and a disintegrant is used to fill the capsules for all dose strengths. Matching placebo capsules will also be provided. Storage conditions will be provided on the study drug container label.
(§5) Dosing occurred between approximately 08:00 AM and 10:00 AM on each dosing day. Water was permitted ad libitum except for 1 hour before and after dosing. Dosing was immediately followed by administration of 240 mL (8 oz.) of water. Meals and beverages served within 24 hours prior to and post dosing were xanthine-free and caffeine-free. Grapefruit and grapefruit juice were not allowed within 7 days before reporting to the clinic on Day −1 and through the end of the study.

[4] = test system: genotype 2 or 3 HCV; experiment: Example 3 Part II: Compound I QD x 7 days in treatment-naïve Genotype 2, 3, 4, 5 and 6 HCV-infected subjects, viral load (HCV RNA); assay type: in vivo; conditions: 300 mg/day for 7 days
Experimental: as §2, §3, §4, §5

CC(C)OC(=O)[C@@H](C)N[P@@](=O)(OC[C@H]1O[C@@H](n2ccc(=O)[nH]c2=O)[C@](C)(Cl)[C@@H]1O)Oc1ccccc1 [Compound I]
tolerability [1]: well-tolerated with no observed patterns of clinical or laboratory abnormalities
Adverse event: Abdominal discomfort ([2]; 10 mg single dose (n = 6)): 0 n, %
Adverse event: Abnormal feces ([2]; 10 mg single dose (n = 6)): 0 n, %
Adverse event: Constipation ([2]; 10 mg single dose (n = 6)): 0 n, %
Adverse event: Dizziness ([2]; 10 mg single dose (n = 6)): 0 n, %
Adverse event: Dry mouth ([2]; 10 mg single dose (n = 6)): 0 n, %
Adverse event: Dry skin ([2]; 10 mg single dose (n = 6)): 0 n, %
Adverse event: Erythema ([2]; 10 mg single dose (n = 6)): 0 n, %
Adverse event: Flushing ([2]; 10 mg single dose (n = 6)): 0 n, %
Adverse event: Headache ([2]; 10 mg single dose (n = 6)): 0 n, %
Adverse event: Menstruation delayed ([2]; 10 mg single dose (n = 6)): 0 n, %
Adverse event: Musculoskeletal stiffness ([2]; 10 mg single dose (n = 6)): 0 n, %
Adverse event: Nausea ([2]; 10 mg single dose (n = 6)): 0 n, %
Adverse event: Palpitations ([2]; 10 mg single dose (n = 6)): 0 n, %
Adverse event: Pancreatic enzymes increased ([2]; 10 mg single dose (n = 6)): 0 n, %
Adverse event: Procedural nausea ([2]; 10 mg single dose (n = 6)): 0 n, %
Adverse event: Vessel puncture site bruise ([2]; 10 mg single dose (n = 6)): 0 n, %
Adverse event: Vessel puncture site pain ([2]; 10 mg single dose (n = 6)): 0 n, %
Adverse event: Vomiting ([2]; 10 mg single dose (n = 6)): 0 n, %
Subjects with AE ([2]; 10 mg single dose (n = 6)): 0 n, %
Adverse event: Abdominal discomfort ([2]; 25 mg single dose (n = 6)): 0 n, %
Adverse event: Abnormal feces ([2]; 25 mg single dose (n = 6)): 0 n, %
Adverse event: Constipation ([2]; 25 mg single dose (n = 6)): 0 n, %
Adverse event: Dizziness ([2]; 25 mg single dose (n = 6)): 0 n, %
Adverse event: Dry mouth ([2]; 25 mg single dose (n = 6)): 0 n, %
Adverse event: Dry skin ([2]; 25 mg single dose (n = 6)): 0 n, %
Adverse event: Erythema ([2]; 25 mg single dose (n = 6)): 0 n, %
Adverse event: Flushing ([2]; 25 mg single dose (n = 6)): 0 n, %
Adverse event: Headache ([2]; 25 mg single dose (n = 6)): 0 n, %
Adverse event: Menstruation delayed ([2]; 25 mg single dose (n = 6)): 0 n, %
Adverse event: Musculoskeletal stiffness ([2]; 25 mg single dose (n = 6)): 0 n, %
Adverse event: Nausea ([2]; 25 mg single dose (n = 6)): 0 n, %
Adverse event: Palpitations ([2]; 25 mg single dose (n = 6)): 0 n, %
Adverse event: Pancreatic enzymes increased ([2]; 25 mg single dose (n = 6)): 1 (16.7) n, %
Adverse event: Procedural nausea ([2]; 25 mg single dose (n = 6)): 1 (16.7) n, %
Adverse event: Vessel puncture site bruise ([2]; 25 mg single dose (n = 6)): 0 n, %
Adverse event: Vessel puncture site pain ([2]; 25 mg single dose (n = 6)): 0 n, %
Adverse event: Vomiting ([2]; 25 mg single dose (n = 6)): 0 n, %
Subjects with AE ([2]; 25 mg single dose (n = 6)): 2 (33.3) n, %
Adverse event: Abdominal discomfort ([2]; 50 mg single dose (n = 6)): 1 (16.7) n, %
Adverse event: Abnormal feces ([2]; 50 mg single dose (n = 6)): 0 n, %
Adverse event: Constipation ([2]; 50 mg single dose (n = 6)): 0 n, %
Adverse event: Dizziness ([2]; 50 mg single dose (n = 6)): 1 (16.7) n, %
Adverse event: Dry mouth ([2]; 50 mg single dose (n = 6)): 0 n, %
Adverse event: Dry skin ([2]; 50 mg single dose (n = 6)): 0 n, %
Adverse event: Erythema ([2]; 50 mg single dose (n = 6)): 0 n, %
Adverse event: Flushing ([2]; 50 mg single dose (n = 6)): 0 n, %
Adverse event: Headache ([2]; 50 mg single dose (n = 6)): 1 (16.7) n, %
Adverse event: Menstruation delayed ([2]; 50 mg single dose (n = 6)): 0 n, %
Adverse event: Musculoskeletal stiffness ([2]; 50 mg single dose (n = 6)): 0 n, %
Adverse event: Nausea ([2]; 50 mg single dose (n = 6)): 0 n, %
Adverse event: Palpitations ([2]; 50 mg single dose (n = 6)): 0 n, %
Adverse event: Pancreatic enzymes increased ([2]; 50 mg single dose (n = 6)): 0 n, %
Adverse event: Procedural nausea ([2]; 50 mg single dose (n = 6)): 0 n, %
Adverse event: Vessel puncture site bruise ([2]; 50 mg single dose (n = 6)): 0 n, %
Adverse event: Vessel puncture site pain ([2]; 50 mg single dose (n = 6)): 0 n, %
Adverse event: Vomiting ([2]; 50 mg single dose (n = 6)): 0 n, %
Subjects with AE ([2]; 50 mg single dose (n = 6)): 2 (33.3) n, %
Adverse event: Abdominal discomfort ([2]; 150 mg (n = 6)): 1 (16.7) n, %
Adverse event: Abnormal feces ([2]; 150 mg (n = 6)): 2 (33.3) n, %
Adverse event: Constipation ([2]; 150 mg (n = 6)): 0 n, %
Adverse event: Dizziness ([2]; 150 mg (n = 6)): 2 (33.3) n, %
Adverse event: Dry mouth ([2]; 150 mg (n = 6)): 1 (16.7) n, %
Adverse event: Dry skin ([2]; 150 mg (n = 6)): 0 n, %
Adverse event: Erythema ([2]; 150 mg (n = 6)): 1 (16.7) n, %
Adverse event: Flushing ([2]; 150 mg (n = 6)): 1 (16.7) n, %
Adverse event: Headache ([2]; 150 mg (n = 6)): 1 (16.7) n, %
Adverse event: Menstruation delayed ([2]; 150 mg (n = 6)): 0 n, %
Adverse event: Musculoskeletal stiffness ([2]; 150 mg (n = 6)): 0 n, %
Adverse event: Palpitations ([2]; 150 mg (n = 6)): 0 n, %
Adverse event: Pancreatic enzymes increased ([2]; 150 mg (n = 6)): 0 n, %
Adverse event: Procedural nausea ([2]; 150 mg (n = 6)): 0 n, %
Adverse event: Vessel puncture site bruise ([2]; 150 mg (n = 6)): 0 n, %
Adverse event: Vessel puncture site pain ([2]; 150 mg (n = 6)): 0 n, %
Adverse event: Vomiting ([2]; 150 mg (n = 6)): 1 (16.7) n, %
Subjects with AE ([2]; 150 mg (n = 6)): 4 (66.7) n, %
Adverse event: Abdominal discomfort ([2]; 300 mg QD x 7 days (n = 6)): 0 n, %
Adverse event: Abnormal feces ([2]; 300 mg QD x 7 days (n = 6)): 0 n, %
Adverse event: Constipation ([2]; 300 mg QD x 7 days (n = 6)): 0 n, %
Adverse event: Dizziness ([2]; 300 mg QD x 7 days (n = 6)): 0 n, %
Adverse event: Dry mouth ([2]; 300 mg QD x 7 days (n = 6)): 0 n, %
Adverse event: Dry skin ([2]; 300 mg QD x 7 days (n = 6)): 0 n, %
Adverse event: Erythema ([2]; 300 mg QD x 7 days (n = 6)): 0 n, %
Adverse event: Flushing ([2]; 300 mg QD x 7 days (n = 6)): 0 n, %
Adverse event: Headache ([2]; 300 mg QD x 7 days (n = 6)): 0 n, %
Adverse event: Menstruation delayed ([2]; 300 mg QD x 7 days (n = 6)): 1 (16.7) n, %
Adverse event: Musculoskeletal stiffness ([2]; 300 mg QD x 7 days (n = 6)): 0 n, %
Adverse event: Nausea ([2]; 300 mg QD x 7 days (n = 6)): 0 n, %
Adverse event: Palpitations ([2]; 300 mg QD x 7 days (n = 6)): 1 (16.7) n, %
Adverse event: Pancreatic enzymes increased ([2]; 300 mg QD x 7 days (n = 6)): 0 n, %
Adverse event: Procedural nausea ([2]; 300 mg QD x 7 days (n = 6)): 0 n, %
Adverse event: Vessel puncture site bruise ([2]; 300 mg QD x 7 days (n = 6)): 1 (16.7) n, %
Adverse event: Vessel puncture site pain ([2]; 300 mg QD x 7 days (n = 6)): 0 n, %
Adverse event: Vomiting ([2]; 300 mg QD x 7 days (n = 6)): 0 n, %
Subjects with AE ([2]; 300 mg QD x 7 days (n = 6)): 2 (33.3) n, %
Adverse event: Abdominal discomfort ([2]; 300 mg single dose (n = 6)): 0 n, %
Adverse event: Abnormal feces ([2]; 300 mg single dose (n = 6)): 0 n, %
Adverse event: Constipation ([2]; 300 mg single dose (n = 6)): 0 n, %
Adverse event: Dizziness ([2]; 300 mg single dose (n = 6)): 1 (16.7) n, %
Adverse event: Dry mouth ([2]; 300 mg single dose (n = 6)): 0 n, %
Adverse event: Dry skin ([2]; 300 mg single dose (n = 6)): 0 n, %
Adverse event: Erythema ([2]; 300 mg single dose (n = 6)): 0 n, %
Adverse event: Flushing ([2]; 300 mg single dose (n = 6)): 0 n, %
Adverse event: Headache ([2]; 300 mg single dose (n = 6)): 1 (16.7) n, %
Adverse event: Menstruation delayed ([2]; 300 mg single dose (n = 6)): 0 n, %
Adverse event: Musculoskeletal stiffness ([2]; 300 mg single dose (n = 6)): 1 (16.7) n, %
Adverse event: Nausea ([2]; 300 mg single dose (n = 6)): 1 (16.7) n, %
Adverse event: Palpitations ([2]; 300 mg single dose (n = 6)): 0 n, %
Adverse event: Pancreatic enzymes increased ([2]; 300 mg single dose (n = 6)): 0 n, %
Adverse event: Procedural nausea ([2]; 300 mg single dose (n = 6)): 0 n, %
Adverse event: Vessel puncture site bruise ([2]; 300 mg single dose (n = 6)): 1 (16.7) n, %
Adverse event: Vessel puncture site pain ([2]; 300 mg single dose (n = 6)): 0 n, %
Adverse event: Vomiting ([2]; 300 mg single dose (n = 6)): 0 n, %
Subjects with AE ([2]; 300 mg single dose (n = 6)): 3 (50.0) n, %
response in genotype 1a versus genotype 1b HCV infection [3]: similar
mean maximal viral load reduction ([3]; 8 genotype 1 HCV-infected patients): 4.2 logs
response in genotype 2 versus genotype 3 HCV infection [4]: similar
mean maximal viral load reduction ([4]; 10 genotype 2 or 3 HCV-infected patients): 4.3 logs
